Experimental data reported in PMC11513893, “Discovery of Oral Degraders of the ROS1 Fusion Protein with Potent Activity against Secondary Resistance Mutations” (Journal of Medicinal Chemistry, 2024).
“And” between values parts separate entries of the source, which are not always exact repeats. Identical values can stand only once.

Columns and labels:
[1] = Pharmacokinetics study in Sprague–Dawley rats; type: in vivo; details: rat
Procedure: Four to 6 weeks old Sprague–Dawley rats [Crl: CD (SD)] (SPF/VAF) were purchased from Charles River (Wilmington MA). Animals were quarantined/acclimated for 2–6 weeks prior to dose initiation. Sprague–Dawley rats were given oral administration of test compounds (20% PG, 5% Solutol, and 75% of 20% HP-β-CD in water) at different dose levels. After treatment with the compounds, whole blood was collected from each study animal by puncture of the tail vein (0.4 mL of whole blood from rats) into tubes containing K2EDTA at each time point. The plasma samples were divided into 2 aliquots (approximately equal in volume) and stored frozen at −75 ± 15 °C within 2 h of the collection until analysis.
The stock solution of the test compound (0.01 M) in DMSO was prepared and stored at −20 ± 5 °C. The desired serial concentrations of working reference analyte solutions were achieved by diluting a stock analyte solution with 50% acetonitrile (0.1% formic acid) in water solution. The bioanalytical LC–MS/MS method was developed for quantitative determination of each test compound in Sprague–Dawley rat plasma with acceptable selectivity, sensitivity, calibration curve, precision, and accuracy. The analytical method is applicable for the determination of test compounds in Sprague–Dawley rat plasma with a lower limit of quantification of 10.0 ng/mL and an upper limit of quantification of 5000 ng/mL. Five microliters of diluted supernatant was injected into the LC–MS/MS system (TSQ Quantis) and a SynergiTM 4 μm Fusion-RP 80 Å (50 × 2 mm) column using gradient elution and a Triple Quad mass spectrometer) for quantitative analysis. The mobile phases used were 0.1% formic acid in deionized water and 0.1% formic acid in acetonitrile. The pharmacokinetic parameters T1/2 (the biological half-life), Cmax (maximal concentration), Tmax (time at which Cmax is observed), and AUC (area under the plasma concentration–time curve) were calculated from the plasma concentration versus time data using WinNonlin (PhoenixTM, version 8.1, Mountain View, CA, USA).

CHEK1 = CHEK1 (Homo sapiens, UniProt O14757); assay: Kinase assay; type: biochemical; details: average of duplicate measurements
[2] = tested on: Ba/F3 ROS1 (CD74) G2032R-L2086F; assay: Antiproliferation assay; type: cell-based; details: Mus musculus, BaF3; Ba/F3 cell line
Procedure: (§1) Ba/F3 immortalized murine bone marrow–derived pro-B cells were obtained from Creative Biogene (Shirley, NY) and cultured in RPMI supplemented with 10% FBS and IL3 (0.5 ng/mL). Ba/F3 cells expressing ROS1 variants were maintained in RPMI supplemented with 10% FBS and puromycin (0.7 mg/mL). Crizotinib, ceritinib, brigatinib, repotrectinib, and lorlatinib were purchased from MedChem Express. Each compound was dissolved in DMSO and serially diluted in RPMI for cell culture experiments.
(§2) To assess the 72 h effect of drug treatment on cell proliferation, 2000 to 3000 cells were plated in replicates of three in 96-well plates. The plates were placed in an incubator at 37 °C, 5% CO2 for 72 h. Following drug treatments, the cells were incubated with the Alamar Blue Assay reagent (BioRad), 5 μL each well for 4 h at 37 °C and 5% CO2. Luminescence was measured on a multiplate reader and analyzed. […] IC50 values were determined using a nonlinear regression model with a sigmoidal dose response in GraphPad. The data were collected based on triplicate experiments, and presented as mean ± SD.
(§3) cDNA encoding CD74-ROS1 or mutant CD74–ROS1 was cloned into retroviral expression vectors (pLenti), and viruses were generated in HEK293T cells by transfecting with packaging plasmids. The resulting virus was used to infect Ba/F3 cells. After retroviral infection, Ba/F3 cells were selected by incubation with puromycin (0.7 mg/mL) for 2 weeks. For Ba/F3 cells infected by the CD74–ROS1 variants, IL3 was withdrawn from the culture medium at least 2 weeks before the experiments.

[3] = tested on: Ba/F3 ROS1 (CD74) S1986F-G2032R; assay: Antiproliferation assay; type: cell-based; details: Mus musculus, BaF3; Ba/F3 cell line
Procedure: as §1, §2, §3

Ba/F3 ROS1 (CD74) L2086F = assay: Antiproliferation assay; type: cell-based; details: Mus musculus, BaF3; Ba/F3 cell line
Procedure: as §1, §2, §3

Ba/F3 ROS1 (CD74) G2032R = assay: Antiproliferation assay; type: cell-based; details: Mus musculus, BaF3; Ba/F3 cell line
Procedure: as §1, §2, §3

CHEK2 [4] = molecular target: T1, CHEK2 (Homo sapiens, UniProt O96017); assay: Kinase assay; type: biochemical; details: average of duplicate measurements
CLK1 = CLK1 (Homo sapiens, UniProt P49759); assay: Degradation assay; type: cell-based; details: average of duplicate measurements
Procedure: (§4) However, the degradation selectivity of 9o often contrasts with its kinase binding selectivity as determined in cells treated with 9o where the kinase level was measurable by Western blot analysis. […] For example, FLT3, CHEK2, and FES, all with kinase binding at <10 nM, were only moderately or minimally degraded, if at all (Table 9).

CHEK2 [5] = molecular target: T1, CHEK2; assay: Degradation assay; type: cell-based; details: average of duplicate measurements
Procedure: as §4

C-MET = C-MET (Homo sapiens, UniProt P08581); assay: Degradation assay; type: cell-based; details: average of duplicate measurements
Procedure: as §4

ERBB4/HER4 = ERBB4/HER4 (Homo sapiens, UniProt Q15303); assay: Degradation assay; type: cell-based; details: average of duplicate measurements
Procedure: as §4

FLT3 = FLT3 (Homo sapiens, UniProt P36888); assay: Degradation assay; type: cell-based; details: average of duplicate measurements
Procedure: as §4

LTK = LTK (Homo sapiens, UniProt P29376); assay: Degradation assay; type: cell-based; details: average of duplicate measurements
Procedure: as §4

FES = FES (Homo sapiens, UniProt P07332); assay: Degradation assay; type: cell-based; details: average of duplicate measurements
Procedure: as §4

FER = FER (Homo sapiens, UniProt P16591); assay: Degradation assay; type: cell-based; details: average of duplicate measurements
Procedure: as §4

RET = RET (Homo sapiens, UniProt P07949); assay: Degradation assay; type: cell-based; details: average of duplicate measurements
Procedure: as §4

FAK/PTK2 = FAK/PTK2 (Homo sapiens, UniProt Q05397); assay: Degradation assay; type: cell-based; details: average of duplicate measurements
Procedure: as §4

CAMK2D = assay: Degradation assay; type: cell-based; details: average of duplicate measurements
Procedure: as §4

ALK = ALK (Homo sapiens, UniProt Q9UM73); assay: Degradation assay; type: cell-based; details: average of duplicate measurements
Procedure: as §4

EGFR = EGFR (Homo sapiens, UniProt P00533); assay: Degradation assay; type: cell-based; details: average of duplicate measurements
Procedure: as §4

ERBB2 = ERBB2 (Homo sapiens, UniProt P04626); assay: Degradation assay; type: cell-based; details: average of duplicate measurements
Procedure: as §4

T1 sequence (O96017 whole entry, species assumed): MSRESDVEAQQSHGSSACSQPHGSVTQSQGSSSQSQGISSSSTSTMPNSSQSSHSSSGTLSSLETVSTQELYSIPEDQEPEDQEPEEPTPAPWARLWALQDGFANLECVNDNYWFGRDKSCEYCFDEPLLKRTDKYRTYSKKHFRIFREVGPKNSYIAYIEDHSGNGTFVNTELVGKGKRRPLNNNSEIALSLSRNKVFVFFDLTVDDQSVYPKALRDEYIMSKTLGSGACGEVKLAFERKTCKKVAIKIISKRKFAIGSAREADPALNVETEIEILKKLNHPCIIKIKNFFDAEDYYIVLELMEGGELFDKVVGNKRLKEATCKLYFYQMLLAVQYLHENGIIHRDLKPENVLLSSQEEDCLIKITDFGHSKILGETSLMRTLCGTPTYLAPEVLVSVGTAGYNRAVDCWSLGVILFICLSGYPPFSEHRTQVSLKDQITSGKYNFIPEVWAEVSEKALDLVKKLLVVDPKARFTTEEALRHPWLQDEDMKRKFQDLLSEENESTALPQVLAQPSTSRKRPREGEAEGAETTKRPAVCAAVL
Chain of CLK1 (P49759 whole entry): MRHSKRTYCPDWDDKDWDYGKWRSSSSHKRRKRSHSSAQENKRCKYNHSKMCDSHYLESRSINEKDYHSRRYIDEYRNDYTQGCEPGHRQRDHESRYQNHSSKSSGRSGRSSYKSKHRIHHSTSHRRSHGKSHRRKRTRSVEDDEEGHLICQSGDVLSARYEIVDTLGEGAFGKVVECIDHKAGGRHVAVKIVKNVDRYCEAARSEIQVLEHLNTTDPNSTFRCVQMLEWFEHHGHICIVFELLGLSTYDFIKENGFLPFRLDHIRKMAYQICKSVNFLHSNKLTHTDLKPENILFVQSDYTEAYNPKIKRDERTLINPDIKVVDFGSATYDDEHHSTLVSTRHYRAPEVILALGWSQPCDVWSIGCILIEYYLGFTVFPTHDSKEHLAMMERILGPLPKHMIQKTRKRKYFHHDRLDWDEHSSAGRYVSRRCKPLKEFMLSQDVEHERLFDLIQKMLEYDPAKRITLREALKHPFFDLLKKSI
Chain of FLT3 (P36888 27-993, species assumed): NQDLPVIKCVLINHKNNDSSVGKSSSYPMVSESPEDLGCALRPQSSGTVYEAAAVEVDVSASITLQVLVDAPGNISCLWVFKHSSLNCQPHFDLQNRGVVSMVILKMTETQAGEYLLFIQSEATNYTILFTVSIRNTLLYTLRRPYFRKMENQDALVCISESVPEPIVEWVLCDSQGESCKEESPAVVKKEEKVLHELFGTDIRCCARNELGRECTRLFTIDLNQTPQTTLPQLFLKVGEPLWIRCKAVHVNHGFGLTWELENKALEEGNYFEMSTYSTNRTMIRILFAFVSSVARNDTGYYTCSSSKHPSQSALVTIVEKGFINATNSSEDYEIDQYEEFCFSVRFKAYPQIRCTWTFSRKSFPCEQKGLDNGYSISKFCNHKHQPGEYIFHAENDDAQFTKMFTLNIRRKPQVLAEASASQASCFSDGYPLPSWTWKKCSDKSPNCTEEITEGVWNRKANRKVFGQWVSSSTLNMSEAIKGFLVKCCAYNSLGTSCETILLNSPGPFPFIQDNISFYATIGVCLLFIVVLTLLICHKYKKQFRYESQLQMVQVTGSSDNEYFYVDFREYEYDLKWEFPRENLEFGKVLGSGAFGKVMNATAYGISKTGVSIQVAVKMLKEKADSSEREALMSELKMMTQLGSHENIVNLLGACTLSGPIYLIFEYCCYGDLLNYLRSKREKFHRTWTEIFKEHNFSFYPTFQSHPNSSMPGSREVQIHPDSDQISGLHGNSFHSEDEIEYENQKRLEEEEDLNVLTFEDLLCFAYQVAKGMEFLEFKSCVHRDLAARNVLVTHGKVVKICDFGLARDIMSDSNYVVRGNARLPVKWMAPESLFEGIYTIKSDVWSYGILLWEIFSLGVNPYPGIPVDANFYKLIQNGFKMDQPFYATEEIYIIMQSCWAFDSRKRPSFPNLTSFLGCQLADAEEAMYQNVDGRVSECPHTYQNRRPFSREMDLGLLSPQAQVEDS
Chain of C-MET (P08581 25-1390): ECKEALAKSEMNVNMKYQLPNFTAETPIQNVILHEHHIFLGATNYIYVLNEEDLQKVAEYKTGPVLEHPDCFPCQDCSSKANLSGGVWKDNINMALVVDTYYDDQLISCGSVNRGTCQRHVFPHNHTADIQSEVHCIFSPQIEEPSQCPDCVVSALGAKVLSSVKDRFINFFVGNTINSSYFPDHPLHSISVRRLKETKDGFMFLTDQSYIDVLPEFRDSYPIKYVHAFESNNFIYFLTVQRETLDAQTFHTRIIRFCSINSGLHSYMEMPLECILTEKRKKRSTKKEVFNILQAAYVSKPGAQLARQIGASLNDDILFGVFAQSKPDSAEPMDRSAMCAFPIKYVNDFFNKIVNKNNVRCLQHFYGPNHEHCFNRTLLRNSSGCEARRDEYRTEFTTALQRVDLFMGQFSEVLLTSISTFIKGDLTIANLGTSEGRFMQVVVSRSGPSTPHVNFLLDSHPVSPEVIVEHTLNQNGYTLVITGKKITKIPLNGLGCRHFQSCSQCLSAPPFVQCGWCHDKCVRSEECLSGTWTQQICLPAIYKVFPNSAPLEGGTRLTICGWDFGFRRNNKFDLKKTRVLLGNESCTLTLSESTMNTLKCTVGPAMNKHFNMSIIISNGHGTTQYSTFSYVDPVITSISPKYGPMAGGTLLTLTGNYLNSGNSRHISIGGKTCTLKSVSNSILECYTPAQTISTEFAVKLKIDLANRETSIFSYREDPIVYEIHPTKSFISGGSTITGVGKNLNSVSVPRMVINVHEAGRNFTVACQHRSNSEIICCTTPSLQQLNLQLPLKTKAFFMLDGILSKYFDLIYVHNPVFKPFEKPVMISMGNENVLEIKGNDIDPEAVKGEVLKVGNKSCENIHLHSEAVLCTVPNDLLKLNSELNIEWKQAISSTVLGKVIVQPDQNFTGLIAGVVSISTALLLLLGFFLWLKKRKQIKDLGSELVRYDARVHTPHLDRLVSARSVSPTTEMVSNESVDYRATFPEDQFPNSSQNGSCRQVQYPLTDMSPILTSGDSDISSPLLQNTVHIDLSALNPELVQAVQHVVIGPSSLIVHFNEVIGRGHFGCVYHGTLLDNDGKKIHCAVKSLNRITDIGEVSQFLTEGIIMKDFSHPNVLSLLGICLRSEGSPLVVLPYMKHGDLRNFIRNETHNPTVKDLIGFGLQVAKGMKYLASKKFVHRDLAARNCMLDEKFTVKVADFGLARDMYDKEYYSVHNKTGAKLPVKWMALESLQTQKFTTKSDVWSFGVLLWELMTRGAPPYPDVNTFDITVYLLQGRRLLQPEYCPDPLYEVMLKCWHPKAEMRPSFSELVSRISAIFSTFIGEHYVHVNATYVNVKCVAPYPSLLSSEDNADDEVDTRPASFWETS
Chain of ALK (Q9UM73 19-1620, species assumed): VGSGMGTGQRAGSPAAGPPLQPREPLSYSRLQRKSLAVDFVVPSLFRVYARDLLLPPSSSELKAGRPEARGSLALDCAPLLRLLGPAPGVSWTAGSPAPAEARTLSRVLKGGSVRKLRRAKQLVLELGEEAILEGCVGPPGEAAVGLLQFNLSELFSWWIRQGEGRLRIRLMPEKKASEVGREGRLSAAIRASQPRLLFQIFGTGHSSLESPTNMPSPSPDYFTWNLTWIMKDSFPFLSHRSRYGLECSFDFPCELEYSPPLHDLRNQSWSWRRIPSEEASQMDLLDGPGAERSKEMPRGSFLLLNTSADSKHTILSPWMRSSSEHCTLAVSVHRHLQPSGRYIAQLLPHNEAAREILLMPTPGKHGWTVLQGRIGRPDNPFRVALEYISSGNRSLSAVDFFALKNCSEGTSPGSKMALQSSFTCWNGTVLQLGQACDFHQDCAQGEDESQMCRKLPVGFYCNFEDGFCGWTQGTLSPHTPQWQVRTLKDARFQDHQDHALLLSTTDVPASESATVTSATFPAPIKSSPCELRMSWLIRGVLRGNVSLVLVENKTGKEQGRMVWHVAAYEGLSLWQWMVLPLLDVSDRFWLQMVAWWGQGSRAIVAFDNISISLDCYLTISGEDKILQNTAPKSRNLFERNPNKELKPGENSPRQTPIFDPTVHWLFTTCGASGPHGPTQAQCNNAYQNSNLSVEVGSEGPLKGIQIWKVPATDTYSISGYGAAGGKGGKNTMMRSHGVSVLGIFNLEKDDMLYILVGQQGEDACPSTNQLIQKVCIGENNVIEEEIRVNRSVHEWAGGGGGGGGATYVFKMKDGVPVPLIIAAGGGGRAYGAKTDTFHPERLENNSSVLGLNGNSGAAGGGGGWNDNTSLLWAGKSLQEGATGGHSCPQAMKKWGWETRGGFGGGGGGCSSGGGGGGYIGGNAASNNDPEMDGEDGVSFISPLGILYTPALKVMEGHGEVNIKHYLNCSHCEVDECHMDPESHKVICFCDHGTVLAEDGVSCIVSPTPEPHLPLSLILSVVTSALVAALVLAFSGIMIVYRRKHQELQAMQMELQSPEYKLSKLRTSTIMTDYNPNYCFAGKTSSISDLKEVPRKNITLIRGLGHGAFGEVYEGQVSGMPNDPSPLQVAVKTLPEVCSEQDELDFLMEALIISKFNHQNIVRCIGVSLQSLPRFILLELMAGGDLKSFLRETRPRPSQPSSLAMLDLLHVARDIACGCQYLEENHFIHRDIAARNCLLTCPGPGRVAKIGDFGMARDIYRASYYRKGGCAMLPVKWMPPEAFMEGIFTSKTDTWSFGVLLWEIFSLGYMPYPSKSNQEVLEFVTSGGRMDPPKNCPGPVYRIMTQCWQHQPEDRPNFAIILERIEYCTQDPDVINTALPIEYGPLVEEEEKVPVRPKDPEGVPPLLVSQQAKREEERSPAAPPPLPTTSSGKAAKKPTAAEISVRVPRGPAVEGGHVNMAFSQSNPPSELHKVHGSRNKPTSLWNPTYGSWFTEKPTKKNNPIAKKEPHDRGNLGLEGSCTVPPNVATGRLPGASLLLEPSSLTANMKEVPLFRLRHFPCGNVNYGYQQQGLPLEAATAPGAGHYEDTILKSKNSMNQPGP

- Cmax at 24 h ([1]; Sprague-Dawley [Crl: CD (SD)], plasma, 5 mg/kg po): 94 ng/mL
- bioavailability ([1]; Sprague-Dawley [Crl: CD (SD)], plasma, 5 mg/kg po vs 0.5 mg/kg iv): 7.3%
- AUC (po) ([1]; 5 mg/kg po): 1267 ng·h/mL
- T1/2 ([1]; 5 mg/kg po): 7.32 h
- Tmax ([1]; 5 mg/kg po): 2 h
- IC50 (CHEK1): 40 nM
- IC50 [2]: 66.2 ± 18.2 nM
- IC50 [3]: 49.5 ± 10.2 nM
- IC50 (Ba/F3 ROS1 (CD74) L2086F): 6.9 ± 1.7 nM
- IC50 (Ba/F3 ROS1 (CD74) G2032R): 7.7 ± 2 nM
- IC50 (CHEK2 [4]): < 10 nM and 3.6 nM
- DC50 (CLK1): > 1000 nM
- DC50 (CHEK2 [5]): 187 nM
- DC50 (C-MET): > 1000 nM
- DC50 (ERBB4/HER4): > 1000 nM
- DC50 (FLT3): > 1000 nM
- DC50 (LTK): > 1000 nM
- DC50 (FES): 320 nM
- DC50 (FER): 17 nM
- DC50 (RET): 58 nM
- DC50 (FAK/PTK2): 1.5 nM
- DC50 (CAMK2D): 264 nM
- DC50 (ALK): 1.7 nM
- DC50 (EGFR): 255 nM
- DC50 (ERBB2): 474 nM
SMILES: COc1cc(N2CCC(N3CCN(CC4CCN(c5ccc6c(c5)CN(C5CCC(=O)NC5=O)C6=O)CC4)CC3)CC2)ccc1Nc1ncc(Cl)c(Nc2ccccc2P(C)(C)=O)n1 (stereo not shown) [9o, 3-(5-(4-((4-(1-(4-((5-Chloro-4-((2-(dimethylphosphoryl)phenyl)amino)pyrimidin-2-yl)amino)-3-methoxyphenyl)piperidin-4-yl)piperazin-1-yl)methyl)piperidin-1-yl)-1-oxoisoindolin-2-yl)piperidine-2,6-dione]
